Measured values as given in US20240209043A1, “NON-ANTIBODY BINDING PEPTIDES AND THEIR ANALOGS DUAL-TARGETING TO PD-1 AND PD-L1, AND USES THEREOF” (ORAL SUBSIDIARY SUN YAT-SEN UNIVERSITY HOSPITAL, priority 2021, published 2024).
Where no end group is shown, it is not given here.

Legend:
[1] = molecular target: T1, PD-1 (Homo sapiens, UniProt Q15116); details: in vitro, prior patent; cited from earlier work
Target sequence in this assay (Q15116 25-288): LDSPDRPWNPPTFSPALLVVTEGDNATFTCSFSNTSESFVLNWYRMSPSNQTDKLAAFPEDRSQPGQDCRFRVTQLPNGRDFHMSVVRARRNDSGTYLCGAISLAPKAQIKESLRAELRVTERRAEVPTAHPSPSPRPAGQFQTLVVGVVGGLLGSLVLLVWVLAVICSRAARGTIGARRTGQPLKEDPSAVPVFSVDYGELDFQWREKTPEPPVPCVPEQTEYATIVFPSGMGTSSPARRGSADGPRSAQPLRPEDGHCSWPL

[2] = system: Jurkat T cells; test: CCK-8 cytotoxicity assay on Jurkat T cells; assay type: cell-based, Human; details: CCK-8, 1-64 μM, 24 hours
Protocol: (§1) Cytotoxicity assay was performed and measured with Cell Counting Kit-8 (CCK-8, Dujindo, Japan). Jurkat cells (each well with 4000 cells), PBMCs (each well with 4000 cells) and Cal27 cells (each well with 2000 cells) were added into a 96-well plate and cultured for 24 hours, respectively. nABP284, nABP386 and nABP486 in a concentration gradient of 1 μM, 2 μM, 3 μM, 4 μM, 8 μM, 16 μM, 32 μM and 64 μM were added into the medium and the cells were cultured for 24 hours in a cell incubator. After that, 10 μl of CCK-8 solution was added to each well and the cells were incubated for 2 hours. VictorX5 Multilabel plate reader (PerkinElmer, Singapore) was used for measuring absorbance of each well at 450 nm. Cell viability (%) was calculated by the following formula:
(§2) Cell viability (%)=[(Sample A−Background A)/(Control A−Blank A)×100%. • Wherein Sample A denotes the absorbance of the experimental well (including cells, CCK-8 solution, medium and peptide diluent) • Background A denotes the absorbance of the background hole (including CCK-8 solution, medium, and peptide diluent without cells); • Control A denotes the absorbance of the control hole (including cells, CCK-8 solution and medium without peptide diluent); and • Blank A denotes the absorbance of the blank hole (including CCK-8 solution and medium without cells and peptide diluent).

[3] = molecular target: T2, PD-1 on the surface of Jurkat T cells (Homo sapiens, UniProt Q15116); test: Immunofluorescence and flow cytometry analysis of specific binding of FITC-stained peptides to Jurkat T cells; assay type: cell-based; details: flow cytometry; 10 μM or 40 μM FITC peptide
T2 construct: when Jurkat cells were stimulated by PMA, they highly expressed PD-1; endogenous in cells; host or cells: Jurkat T cells stimulated with PMA and ionomycin
T2 sequence (Q15116 25-288): as above
Protocol: (§3) Experiments were divided into an experimental group and a control group. In the experimental group, Jurkat T cells were stimulated for 24 hours with 50 ng/ml of Phorbol 12-myristate 13-acetate (PMA) and 1 ug/ml of Ionomycin Calcium Salt (Ionomycin) to express PD-1, while in the control group, Jurkat T cells were not stimulated and thus hardly expressed any PD-1. For immunofluorescence analysis, Jurkat T cells (1×10^6) were obtained and blocked with 2% BSA for 1 hour at room temperature to decrease specific binding. After blocking, the cells were collected and incubated with 10 μM of peptides stained with FITC (green fluorescence) for 1 hour at 37° C. PBS was used for washing the cells three times and 4% paraformaldehyde was used for immobilization. […] PBS was used for washing three times again and anti-fade mounting medium was used for preserving fluorescence. Further, fluorescence confocal microscope images were analyzed by using Image J software to evaluate the ability of polypeptides to compete the binding sites of PD-1. […] Subsequently, the cells were incubated with 10 μM or 40 μM of peptides stained with FITC (green fluorescence) for 1 hour at 4° C. PBS was used for washing three times, and finally 500 ul of PBS was used for resuspending the cells, which were then transferred to flow tubes and analyzed by flow cytometry (CytoFLEX, BECK MANCOULTER, America).

[4] = system: Cal27 cells; test: CCK-8 cytotoxicity assay on Cal27 cells; assay type: cell-based, Human; details: CCK-8, 1-64 μM, 24 hours
Protocol: as §1, §2

[5] = molecular target: T3, recombinant Human PD-L1 protein binding to PD-1-expressing Jurkat T cells (Homo sapiens, UniProt Q15116); test: Neutralization of recombinant Human PD-L1 protein binding to PD-1-expressing Jurkat T cells (flow cytometry); assay type: cell-based; details: peptide 0.4-40 μM mixed with PD-L1 protein, stimulated Jurkat T cells
T3 construct: when Jurkat cells were stimulated by PMA, they highly expressed PD-1; host or cells: Jurkat T cells stimulated with PMA and ionomycin
T3 sequence (Q15116 25-288): as above
Protocol: The Jurkat T cells were divided into two groups, an experimental group and a control group, wherein in the experimental group, 50 ng/ml of Phorbol 12-myristate 13-acetate (PAM) and 1 ug/ml of Ionomycin Calcium Salt (Ionomycin) were used to stimulate the cells, and in the control group, Jurkat T cells were unstimulated. The cells (5×10^5) were collected in each tube, and washed once with FACS buffer (PBS with 2% BSA). Then recombinant Human PD-L1 protein (PD1-H82F3, Acro Biosystems) was diluted to 4 ug/ml with FACS, and PD-1 binding peptides were diluted with FACS to a series of concentrations of 0.4 μM, 1.33 μM, 4 μM, 13.3 μM, and 40 μM. Subsequently, the two working solutions (PD-L1 protein diluent and peptide diluent) were mixed in an equal volume and 100 ul of mixed solutions at different concentrations were added to the centrifuge tubes together with the cells, incubated for 1 hour at 4° C. FACS buffer was used for washing the cells three times, and 0.12 ug/ml of APC Streptavidin (405207, Biolegend) was added to each tube and the incubation was performed for 1 hour at 4° C., and then the cells were washed three times with FACS buffer again, and 500 μl of PBS was added to resuspend the cells, which were further transferred to flow tubes and analyzed by flow cytometry.
Further, neutralization capacity of nABP284 and new peptides to recombinant Human PD-L1 protein were studied. […]

[6] = system: PD-1/PD-L1 interaction in Jurkat T / Cal27 co-culture; test: Co-culture of stimulated Jurkat T cells and stimulated Cal27 cells, IL-2 ELISA; assay type: cell-based, Human; details: 10 μM peptide or 2 ug/ml antibody, 24 hours co-culture, compared with the control group
Protocol: 50 ng/ml of Phorbol 12-myristate 13-acetate (PMA) and 1 ug/ml of Ionomycin Calcium Salt (Ionomycin) were used for stimulating Jurkat T cells for 24 hours, and 500 U/ml of IFN-γ was used for stimulating CAL27 cells for 48 hours. The stimulated Jurkat T cells were incubated with 10 μM of nABP284, 10 μM of nABP386, 10 μM of nABP486, and 2 ug/ml of PD-1 functional monoclonal antibody (J116, eBioscience|ThermoFisher Science) for 1 hour in advance at 37° C., respectively, and the stimulated CAL27 cells were added to the 96-well plate at 1×10^4 cells per well. When CAL27 cells were immobilized, a supernate was removed. The Jurkat T cells at a ratio of 4 to 1 and 200 ul of medium were added to each well. After these cells were co-cultured for 24 hours, a supernate was collected and analyzed by ELISA kit (88-7025-86, Thermo Fisher Scientific) to measure the amount of IL-2 in the supernate.

[7] = molecular target: T1, PD-1; test: SPR affinity assay on recombinant Human PD-1 protein (Biocore T100, CM5 chip); assay type: binding; parameters: purchased Acro Biosystems PD1-H5221
Protocol: The affinity of the peptides was tested with Biocore T100 through surface plasmon resonance (SPR) technique. […] Finally, the affinities (Kd-value) of the peptides were calculated by fitting curves in the sensor diagram in Biacore software.
The binding affinities (Kd-value) of nABP386, nABP486, and nABP786 to PD-1 were detected by Surface plasma resonance (SPR), respectively.
Target sequence in this assay (Q15116 25-167 limits assumed): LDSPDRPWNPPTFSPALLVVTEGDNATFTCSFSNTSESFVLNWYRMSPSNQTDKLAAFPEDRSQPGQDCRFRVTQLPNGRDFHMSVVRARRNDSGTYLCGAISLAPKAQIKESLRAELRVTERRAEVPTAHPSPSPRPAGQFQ

[8] = molecular target: T4, PD-1 expressed on the surface of stimulated Jurkat T cells (Homo sapiens, UniProt Q15116); test: Blocking capacity: competitive binding to PD-1 on stimulated Jurkat T cells (immunofluorescence, mean fluorescence intensity); assay type: cell-based; details: 1 hour incubation, equal concentration
T4 construct: when Jurkat cells were stimulated by PMA, they highly expressed PD-1; endogenous in cells; host or cells: Jurkat T cells stimulated with PMA and ionomycin
T4 sequence (Q15116 25-288): as the sequence (Q15116 25-288) above
Protocol: as §3, with “America). […]” for “America).”

[9] = system: tumor; details: prior patent; cited from earlier work

neutralization capacity to recombinant Human PD-L1 protein [5]: can be inhibited
Sequence: SRLKEIANSPTQFWRMVARNTLGGAKQSLNIEHARL [nABP284]
blocking of PD-L1 ligand binding to PD-1 [1]: can block the binding of PD-L1 ligand to PD-1 | secretion of IL-2 and tumor cytotoxicity of T lymphocytes [1]: enhance the secretion of interleukin 2 (IL-2) and tumor cytotoxicity of T lymphocytes | direct cytotoxicity to Jurkat T cells [2]: no directly cytotoxicity | binding rate to PD-1-expressing Jurkat T cells [3]: may increase with its increasing concentration | direct cytotoxicity to Cal27 cells [4]: no directly cytotoxicity | secretion level of IL-2 in the co-culture system [6]: significantly increased | binding affinity to PD-1, in words [7]: can specifically bind to PD-1 with moderate affinity | blocking capacity on PD-1 (mean fluorescence intensity) [8]: have a blocking capacity on PD-1 expressed on the surface of stimulated Jurkat T cells | tumor growth in mice [9]: inhibit tumor growth in mice
